One experiment relates to HIV-1 (NL4-3 strain). The experiment is described as follows: ViKinG (Viral Kinetics GFP Reporter) assay for inhibition of HIV replication. The class given is cell-based. The note with it: MT4-GFP cells infected with HIV-1 NL4-3, RPMI + 10% or 50% NHS (not given), infected cells at 48 h / 24 h. The source says:
The ViKinG (Viral Kinetics GFP Reporter) assay is an in vitro kinetic assay that employs the MT4-gag-GFP reporter cell line (Wang et al., “Assessment of the susceptibility of mutant HIV-1 to antiviral agents.” J Virological Methods 165:230-37 (2010)) to quantify the number of new cells infected in each round of replication. The purpose of the ViKinG assay is to identify agents that inhibit HIV progression. Briefly, HIV infection results in tat transactivation of the stably expressed HIV LTR promoter to drive gagGFP expression. Thus, an increase in the number of GFP-MT4 cells results following HIV infection.
MT4-GFP cells (250,000 cells/m1) were bulk-infected with HIV-1 (NL4-3 strain) at low multiplicity of infection (MOT) in RPMI+10% FBS for 24 hours. Cells were then washed once in RPMI+10% FBS and resuspended RPMI+10% or 50% normal human serum (NHS). Test compounds were serial-diluted in DMSO on an ECHO® liquid handling platform (Labcyte Corp., Sunnyvale, Calif.), along with a triple drug control (integrase, protease and NNRTI compounds). The infected MT4-GFP cells were added to a 384-well poly-D-lysine coated black plate with clear bottom in which the diluted test compounds were placed. The cells were seeded at 8,000 cells per well and the final DMSO concentration was 0.4%. The infected cells (Green GFP cells) were quantified at both 24 and 48 hours post incubation using Acumen® eX3 (TTP Labtech Ltd., Hertfordshire, United Kingdom). Viral reproductive ratio (R0) was determined using the number of infected cells at 48 hours divided by the number of infected cells at 24 hours. Percent viral growth inhibition was calculated by [1−(R−Rtripledrug)/(RDMSO−Rtripledrug)]*100. Compound potency IP or IC50 was determined by a 4-parameter dose response curve analysis.

A further experiment deals with T1, WT-Integrase (Human immunodeficiency virus type 1 group M subtype B, UniProt P04585).
T1 construct: assembled PVT SPA beads with WT-Integrase and boitinylated DNA
The experiment is described as follows: InSTANT integrase DNA strand transfer functional assay. It counts as biochemical, HIV. The note with it: SPA strand transfer, 15 minutes at 37° C. On the procedure: InSTANT is an integrase DNA strand transfer functional assay used to determine potency of InSTIs, which was carried out as described below. 8 μl of SPA buffer (27.8 mM Hepes, 27.8 mM MgCl2, 111.1 μg/mL BSA, 5.56 mM βME, and 57.1 mM NaCl) containing 5 nM 3H-labeled target DNA (prepared separately) and 10 μl of assembled PVT SPA beads with WT-Integrase and boitinylated DNA (prepared separately) were added to the assay plate which contained 0.4 μl of test compound(s) or positive or negative control compound(s) per well. The assay plate was shaken for 1 minute on HT-91002 1.0 MM shaker and then was sealed and incubated for 15 minutes at 37° C. The assay reaction was quenched by adding 4 μl of 1.25 M EDTA to each well of the assay plate with mixing. After incubating the plate at room temperature for 1 hour, the quenched plate was spun at 200 g for 1 minute and read on TopCount (1 minute per well). Percent inhibition was calculated by [1−(Sample−Min)/(Max−Min)]*100. Compound potency IP or IC50 was determined by a 4-parameter dose response curve analysis.

[1] abbreviates: Human immunodeficiency virus 1, NL43.

Structures are written as SMILES. Counter-ions that a name gives are not always drawn.

Usually IC50 stands for the concentration at which inhibition is half-maximal. Take `O=C1c2c(O)c(=O)c3c(n2CCN1Cc1ccc(F)c(Cl)c1)COCCC3` [Compound 1, 9-(3-chloro-4-fluorobenzyl)-7-hydroxy-4,5,10,11-tetrahydro-1H-oxepino[4′,3′:5,6]pyrido[1,2-a]pyrazine-6,8(3H,9H)-dione]: the figures for the IC50 in the experiment on HIV-1 (NL4-3 strain) (setting [1]) and against WT-Integrase were 347 nM and 58 nM, respectively. For `O=C1c2c(O)c(=O)c3c(n2CCN1Cc1ccc(F)c(Cl)c1)COCC=C3` [Compound 2, 9-(3-chloro-4-fluorobenzyl)-7-hydroxy-10,11-dihydro-1H-oxepino[4′,3′:5,6]pyrido[1,2-a]pyrazine-6,8(3H,9H)-dione], in that order: 76 nM and 11 nM. As to `O=C1c2c(O)c(=O)c3c(n2CCN1Cc1ccc(F)c(Cl)c1)COCC1CC31` (stereo not drawn) [Compound 3, 2-(3-chloro-4-fluorobenzyl)-11-hydroxy-3,4,8,8a,9,9a-hexahydrocyclopropa[5′,6]oxepino[4′,3′:5,6]pyrido[1,2-a]pyrazine-1,10(2H,6H)-dione], the IC50 in the experiment on HIV-1 (NL4-3 strain) (setting [1]) worked out at 241 nM.

As to `CC1=CCOCc2c1c(=O)c(O)c1n2CCN(Cc2ccc(F)c(Cl)c2)C1=O` [Compound 4, 9-(3-chloro-4-fluorobenzyl)-7-hydroxy-5-methyl-10,11-dihydro-1H-oxepino[4′,3′:5,6]pyrido[1,2-a]pyrazine-6,8(3H,9H)-dione], the results for the 50% inhibitory concentration (IC50) in the experiment on HIV-1 (NL4-3 strain) (setting [1]) and on WT-Integrase were 91 nM and 18 nM, respectively. Take `C/C=C1\COCc2c1c(=O)c(O)c1n2CCN(Cc2ccc(F)c(Cl)c2)C1=O` [Compound 5, (Z)-8-(3-chloro-4-fluorobenzyl)-4-ethylidene-6-hydroxy-3,4,9,10-tetrahydropyrano[4′,3′:5,6]pyrido[1,2-a]pyrazine-5,7(1H,8H)-dione]: in the experiment with HIV-1 (NL4-3 strain) (setting [1]), the IC50 turned out to be 183 nM. On to `CCC1COCc2c1c(=O)c(O)c1n2CCN(Cc2ccc(F)cc2)C1=O` (stereo not drawn) [Compound 6], for which the IC50 in the experiment with HIV-1 (NL4-3 strain) (setting [1]) was 492 nM; against WT-Integrase it was 21 nM.

On to `CCC1COCc2c1c(=O)c(O)c1n2CCN(Cc2ccc(F)c(Cl)c2)C1=O` (stereo not drawn) [Compound 7], for which the IC50 in the experiment with HIV-1 (NL4-3 strain) (setting [1]) came to 461 nM; at WT-Integrase, 13 nM.

For `CC1CC12COCc1c2c(=O)c(O)c2n1CCN(Cc1ccc(F)c(Cl)c1)C2=O` (stereo not drawn) [Compound 8, 8′-(3-chloro-4-fluorobenzyl)-6′-hydroxy-2-methyl-9′,10′-dihydro-1′H-spiro[cyclopropane-1,4′-pyrano[4′,3′:5,6]pyrido[1,2-a]pyrazine]-5′,7′(3′H,8′H)-dione], the IC50 in the experiment on HIV-1 (NL4-3 strain) (setting [1]) was determined as 507 nM; on WT-Integrase it was 28 nM. Take `O=C1c2c(O)c(=O)c3c(n2CCN1Cc1ccc(F)cc1)COCCCC3` [Compound 9, 10-(4-fluorobenzyl)-8-hydroxy-3,4,5,6,11,12-hexahydrooxocino[4,3′:5,6]pyrido[1,2-a]pyrazine-7, 9(1H, 1 OH)-dione]: the IC50 with HIV-1 (NL4-3 strain) turned out to be 961 nM.

With `CC(C)c1c(CNC(=O)c2ccon2)n2c(c(O)c1=O)C(=O)N(Cc1ccc(F)c(Cl)c1)CC2` [Compound 10, N-((2-(3-chloro-4-fluorobenzyl)-9-hydroxy-7-isopropyl-1,8-dioxo-2,3,4,8-tetrahydro-1H-pyrido[1,2-a]pyrazin-6-yl)methyl)isoxazole-3-carboxamide], the IC50 in the experiment with HIV-1 (NL4-3 strain) (setting [1]) was 406 nM. With `C=C1COCc2c1c(=O)c(O)c1n2CCN(Cc2ccc(F)c(Cl)c2)C1=O` [Compound 11, 8-(3-chloro-4-fluorobenzyl)-6-hydroxy-4-methylene-3,4,9,10-tetrahydropyrano[4′,3′:5,6]pyrido[1,2-a]pyrazine-5,7(1H,8H)-dione], the IC50 in the experiment with HIV-1 (NL4-3 strain) (setting [1]) was 298 nM.

With `O=C1c2c(O)c(=O)c3c(n2CCN1Cc1ccc(F)c(Cl)c1)COC31C=CCC1` (stereo not drawn) [Compound 12, 7′-(3-chloro-4-fluorobenzyl)-5′-hydroxy-8′,9′-dihydrospiro[cyclopent[2]ene-1,3′-furo[3′,4′:5,6]pyrido[1,2-a]pyrazine]-4′,6′(1′H,7′H)-dione], in the experiment with HIV-1 (NL4-3 strain), the IC50 came to 1020 nM.

Consider `O=C1c2c(O)c(=O)c3c(n2CCN1Cc1ccc(F)c(Cl)c1)COC31CCC2CC21` (stereo not drawn) [Compound 13], for which the IC50 with HIV-1 (NL4-3 strain) (setting [1]) worked out at 333 nM; against WT-Integrase, 8 nM. As for `O=C1c2c(O)c(=O)c3c(n2CCN1Cc1ccc(F)c(Cl)c1)COC31CCCC1O` (stereo not drawn) [Compound 14, 7′-(3-chloro-4-fluorobenzyl)-2,5′-dihydroxy-8′,9′-dihydrospiro[cyclopentane-1,3′-furo[3′,4′:5,6]pyrido[1,2-a]pyrazine]-4′,6′(1′H,7′H)-dione], the IC50 in the experiment on HIV-1 (NL4-3 strain) (setting [1]) is 144 nM; at WT-Integrase it was 12 nM.

For the molecule `O=C1c2c(O)c(=O)c3c(n2CCN1Cc1ccc(F)c(Cl)c1)COC31C=CCCC1` (stereo not drawn) [Compound 15, 7′-(3-chloro-4-fluorobenzyl)-5′-hydroxy-8′,9′-dihydrospiro[cyclohex[2]ene-1,3′-furo[3′,4′:5,6]pyrido[1,2-a]pyrazine]-4′,6′(1′H,7′H)-dione], in the experiment on HIV-1 (NL4-3 strain) (setting [1]), the IC50 is 401 nM. On to `CC1CCNCc2c1c(=O)c(O)c1n2CCN(Cc2ccc(F)c(Cl)c2)C1=O` (stereo not drawn) [Compound 16, 9-(3-chloro-4-fluorobenzyl)-7-hydroxy-5-methyl-2,3,4,5,10,11-hexahydropyrazino[1′,2′:1,6]pyrido[2,3-c]azepine-6,8(1H,9H)-dione trifluoroacetate salt], for which the IC50 in the experiment with HIV-1 (NL4-3 strain) (setting [1]) worked out at 487 nM. Take `C=C1CCN(C(=O)C(=O)N(C)C)Cc2c1c(=O)c(O)c1n2CCN(Cc2ccc(F)c(Cl)c2)C1=O` [Compound 17, 2-(9-(3-chloro-4-fluorobenzyl)-7-hydroxy-5-methylene-6,8-dioxo-4,5,8,9,10,11-hexahydropyrazino[1′,2′:1,6]pyrido[2,3-c]azepin-2(1H,3H,6H)-yl)-N,N-dimethyl-2-oxoacetamide]: the IC50 with HIV-1 (NL4-3 strain) (setting [1]) is above 4200 nM. Take `CC1CCN(C(=O)C(=O)N(C)C)Cc2c1c(=O)c(O)c1n2CCN(Cc2ccc(F)c(Cl)c2)C1=O` (stereo not drawn) [Compound 18, 2-(9-(3-chloro-4-fluorobenzyl)-7-hydroxy-5-methyl-6,8-dioxo-4,5,8,9,10,11-hexahydropyrazino[1′,2′:1,6]pyrido[2,3-c]azepin-2(1H,3H,6H)-yl)-N,N-dimethyl-2-oxoacetamide]: the values for the IC50 in the experiment on HIV-1 (NL4-3 strain) (setting [1]) and on WT-Integrase were 3660 nM and 20 nM, respectively. In the case of `CC(C)c1c(C(=O)N(C)C)n2c(c(O)c1=O)C(=O)N(Cc1ccc(F)c(Cl)c1)CC2` [Compound 19, 2-(3-chloro-4-fluorobenzyl)-9-hydroxy-7-isopropyl-N,N-dimethyl-1,8-dioxo-2,3,4,8-tetrahydro-1H-pyrido[1,2-a]pyrazine-6-carboxamide], the figures for the IC50 with HIV-1 (NL4-3 strain) (setting [1]) and at WT-Integrase were 82 nM and 10 nM, respectively. Regarding `CN1C/C=C\Cc2c(n3c(c(O)c2=O)C(=O)N(Cc2ccc(F)c(Cl)c2)CC3)C1=O` [Compound 23, (Z)-10-(3-chloro-4-fluorobenzyl)-8-hydroxy-2-methyl-2,3,11,12-tetrahydro-1H-pyrazino[1′,2′:1,6]pyrido[2,3-c]azocine-1,7,9(6H,10H)-trione], the IC50 in the experiment with HIV-1 (NL4-3 strain) (setting [1]) is 273 nM.

With `CCc1cn(C)c(=O)c2c1c(=O)c(O)c1n2CCN(Cc2ccc(F)c(Cl)c2)C1=O` [Compound 24, 8-(3-chloro-4-fluorobenzyl)-4-ethyl-6-hydroxy-2-methyl-9,10-dihydro-1H-pyrazino[1,2-a][1,7]naphthyridine-1,5,7(2H,8H)-trione], the IC50 in the experiment with HIV-1 (NL4-3 strain) (setting [1]) turned out to be 1120 nM. As to `C=C(C)C1COCc2c1c(=O)c(O)c1n2CCN(Cc2ccc(F)c(Cl)c2)C1=O` (stereo not drawn) [Compound 26], the IC50 in the experiment with HIV-1 (NL4-3 strain) (setting [1]) is 272 nM. For the molecule `CC(C)C1COCc2c1c(=O)c(O)c1n2CCN(Cc2ccc(F)cc2)C1=O` (stereo not drawn) [Compound 27], the IC50 in the experiment on HIV-1 (NL4-3 strain) (setting [1]) was 672 nM. Still for that read-out and setting: then `C=C1CCOCc2c1c(=O)c(O)c1n2CCN(Cc2ccc(F)c(Cl)c2)C1=O` [Compound 28], with 503 nM; and `C=C1CCN(C(=O)CN(C)C)Cc2c1c(=O)c(O)c1n2CCN(Cc2ccc(F)c(Cl)c2)C1=O` [Compound 29], with above 4200 nM; and `CC1CCN(C(=O)CN(C)C)Cc2c1c(=O)c(O)c1n2CCN(Cc2ccc(F)c(Cl)c2)C1=O` (stereo not drawn) [Compound 30], with 3250 nM.

These data come from US9493479B2 (Merck Sharp & Dohme Corp., priority 2013, dated 2016).
